Data: US20100267755A1, “PYRIMIDINE DERIVATIVES” (GLAXO GROUP LIMITED, priority 2001, published 2010)

Target: T1, microsomal h-COX2 (Homo sapiens, UniProt P35354)
T1 construct: made in house; host or cells: baculovirus infected SF9 cells
T1 sequence (P35354 18-604): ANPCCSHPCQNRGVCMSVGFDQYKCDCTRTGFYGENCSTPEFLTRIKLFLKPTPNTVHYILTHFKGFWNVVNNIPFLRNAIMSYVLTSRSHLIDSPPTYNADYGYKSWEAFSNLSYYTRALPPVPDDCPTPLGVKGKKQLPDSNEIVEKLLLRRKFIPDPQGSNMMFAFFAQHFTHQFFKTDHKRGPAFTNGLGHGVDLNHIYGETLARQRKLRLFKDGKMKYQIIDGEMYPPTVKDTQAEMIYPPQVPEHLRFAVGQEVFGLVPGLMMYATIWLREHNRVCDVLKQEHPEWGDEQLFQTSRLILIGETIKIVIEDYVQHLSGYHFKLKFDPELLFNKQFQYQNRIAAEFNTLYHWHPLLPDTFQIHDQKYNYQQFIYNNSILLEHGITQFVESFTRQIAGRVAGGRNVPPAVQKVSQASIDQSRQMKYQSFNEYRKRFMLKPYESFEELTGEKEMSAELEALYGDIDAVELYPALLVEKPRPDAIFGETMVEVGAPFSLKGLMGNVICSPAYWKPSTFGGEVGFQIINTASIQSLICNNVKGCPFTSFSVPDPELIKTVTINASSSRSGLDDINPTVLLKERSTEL
Test: Inhibitory activity against microsomal h-COX2 (PGE2 by EIA)
Format: biochemical
Conditions: for IC50: microsomal preparation from baculovirus infected SF9 cells, 0.1 μM arachidonic acid, read-out: COX-2 IC50; for inhibition at 10 µM: read-out: COX-2% inhibition
Experimental: Inhibitory activity against microsomal h-COX2 was assessed against a microsomal preparation from baculovirus infected SF9 cells. An aliquot of microsomal preparation was thawed slowly on ice and a 1/40,000 dilution prepared from it into the assay buffer (sterile water, degassed with argon containing 100 mM HEPES (pH 7.4), 10 mM EDTA (pH7.4), 1 mM phenol, 1 mM reduced glutathione, 20 mg/ml gelatin and 0.001 mM Hematin). Once diluted the enzyme solution was then sonicated for 5 seconds (Branson sonicator, setting 4, 1 cm tip) to ensure a homogeneous suspension. […] Plates were then mixed and incubated at room temperature for 1 hour. Following the incubation period, 40 μl of 0.5 μM arachidonic acid was added to each well to give a final concentration of 0.1 μM. Plates were then mixed and incubated for exactly 10 minutes (room temperature) prior to addition of 25 μl 1M HCl (hydrochloric acid) to each well to stop the reaction. 25 μl of 1M NaOH (sodium hydroxide) was then added to each well to neutralise the solution prior to determination of PGE2 levels by enzyme immunoassay (EIA).

SMILES	IC50	inhibition at 10 µM
Cc1c(-c2ccc(S(C)(=O)=O)cc2)nc(NCC2CCOCC2)nc1C(F)(F)F [Example 7]	> 100 µM	–
Cc1c(-c2ccc(S(C)(=O)=O)cc2)nc(NCCc2ccccn2)nc1C(F)(F)F [Example 10]	71.2 µM	–
Cc1c(-c2ccc(S(C)(=O)=O)cc2)nc(NCC(C)C)nc1C(F)(F)F [Example 2, N-isobutyl-5-methyl-4-[4-(methylsulfonyl)phenyl]-6-(trifluoromethyl)pyrimidin-2-amine]	6.6 µM	–
Cc1c(-c2ccc(S(C)(=O)=O)cc2)nc(NCc2ccccn2)nc1C(F)(F)F [Example 9]	> 98.6 µM	–
Cc1ccc(CNc2nc(-c3ccc(S(C)(=O)=O)cc3)c(C)c(C(F)(F)F)n2)cc1 [Example 5]	15.3 µM	–
Cc1c(-c2ccc(S(C)(=O)=O)cc2)nc(NCc2ccccc2)nc1C(F)(F)F [Example 1, N-benzyl-5-methyl-4-[4-(methylsulfonyl)phenyl]-6-(trifluoromethyl)pyrimidin-2-amine]	1.3 µM	61%
CCCCNc1nc(-c2ccc(S(C)(=O)=O)cc2)c(C)c(C(F)(F)F)n1 [Example 11]	6.3 µM	43%
CCCNc1nc(-c2ccc(S(C)(=O)=O)cc2)c(C)c(C(F)(F)F)n1 [Example 8]	26.7 µM	–
Cc1c(-c2ccc(S(C)(=O)=O)cc2)nc(NCc2ccccc2O)nc1C(F)(F)F [Example 3]	2.5 µM	–
Cc1c(-c2ccc(S(C)(=O)=O)cc2)nc(NC2CCCCC2)nc1C(F)(F)F [Example 6]	2.3 µM	–
Cc1c(-c2ccc(S(C)(=O)=O)cc2)nc(NCc2cccs2)nc1C(F)(F)F [Example 4]	0.56 µM	–
